Laboratory results as given in article PMC11295495 (Neuropharmacology, 2023).
Read-outs that look alike come from different tables or passages of the source.

How the values were obtained:
a9a10 nAChR [1] = target: T1, a9a10 nAChR (Homo sapiens, UniProt Q9GZZ6+Q9UGM1); assay: two-electrode voltage-clamp in Xenopus oocytes, inhibition of […] ACh responses; assay type: cell-based
a7 nAChR = a7 nAChR (Homo sapiens, UniProt P36544); assay: cell-based
a9 nAChR = a9 nAChR (Homo sapiens, UniProt Q9UGM1); assay: two-electrode voltage-clamp in Xenopus oocytes, inhibition of […] ACh responses; assay type: cell-based
a9a10 nAChR [2] = target: T1, a9a10 nAChR; assay: as above; assay type: cell-based; remark: listed apart in the source

T1 sequence (Q9UGM1 23-479): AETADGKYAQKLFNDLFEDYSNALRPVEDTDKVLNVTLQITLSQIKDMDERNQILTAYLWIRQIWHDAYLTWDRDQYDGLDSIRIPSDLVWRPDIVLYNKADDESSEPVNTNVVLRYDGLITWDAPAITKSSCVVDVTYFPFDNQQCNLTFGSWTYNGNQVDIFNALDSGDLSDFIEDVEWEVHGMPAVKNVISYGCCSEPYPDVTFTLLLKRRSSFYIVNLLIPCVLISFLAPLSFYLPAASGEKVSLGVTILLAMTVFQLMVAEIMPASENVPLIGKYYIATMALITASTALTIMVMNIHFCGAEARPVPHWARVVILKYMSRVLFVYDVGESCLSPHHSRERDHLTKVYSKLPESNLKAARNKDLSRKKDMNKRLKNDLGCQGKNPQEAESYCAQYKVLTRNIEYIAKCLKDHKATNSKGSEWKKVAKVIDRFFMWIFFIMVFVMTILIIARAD
T1 sequence (Q9GZZ6 25-450): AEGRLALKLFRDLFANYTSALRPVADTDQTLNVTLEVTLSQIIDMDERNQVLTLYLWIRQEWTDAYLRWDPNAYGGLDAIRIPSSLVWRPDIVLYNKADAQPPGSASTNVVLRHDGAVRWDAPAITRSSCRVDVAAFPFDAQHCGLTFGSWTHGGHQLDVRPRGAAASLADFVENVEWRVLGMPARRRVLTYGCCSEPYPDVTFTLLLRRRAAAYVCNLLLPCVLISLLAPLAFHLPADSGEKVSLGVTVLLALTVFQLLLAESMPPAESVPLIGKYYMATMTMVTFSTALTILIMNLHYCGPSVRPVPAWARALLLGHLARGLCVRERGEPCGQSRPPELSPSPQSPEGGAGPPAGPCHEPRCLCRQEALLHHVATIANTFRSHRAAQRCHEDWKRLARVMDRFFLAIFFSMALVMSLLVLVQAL
a7 nAChR, sequence (P36544 23-502): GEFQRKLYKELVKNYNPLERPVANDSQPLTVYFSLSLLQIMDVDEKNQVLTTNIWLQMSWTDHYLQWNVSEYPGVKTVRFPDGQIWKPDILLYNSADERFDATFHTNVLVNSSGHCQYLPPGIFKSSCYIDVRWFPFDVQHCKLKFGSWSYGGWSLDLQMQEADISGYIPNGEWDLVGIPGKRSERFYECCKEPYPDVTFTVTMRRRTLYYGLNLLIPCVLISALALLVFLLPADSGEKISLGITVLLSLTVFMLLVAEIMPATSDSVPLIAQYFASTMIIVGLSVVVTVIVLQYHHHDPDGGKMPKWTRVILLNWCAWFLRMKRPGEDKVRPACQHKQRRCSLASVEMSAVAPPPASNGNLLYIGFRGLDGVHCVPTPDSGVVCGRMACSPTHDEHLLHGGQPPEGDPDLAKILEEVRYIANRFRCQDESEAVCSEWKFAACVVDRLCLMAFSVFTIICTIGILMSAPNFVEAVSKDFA
a9 nAChR, sequence (Q9UGM1 23-479): as the sequence (Q9UGM1 23-479) above

Structure (SMILES) | IC50 (a9a10 nAChR [1]) [nM] | IC50 (a7 nAChR) [nM] | IC50 (a9 nAChR) [nM] | IC50 (a9a10 nAChR [2]) [nM]
CC[N+]1(CC)CCN(c2cccc(C#N)c2)CC1 [mCN-diEPP, 4-(3-cyanophenyl)-1,1-diethylpiperazin-1-ium] | 17100 ± 1540 | – | – | –
CCN1C[C@]2(COC(=O)c3ccccc3N3C(=O)C[C@H](C)C3=O)CC[C@H](OC)[C@@]34[C@@H]5C[C@H]6[C@H](OC)[C@@H]5[C@](O)(C[C@@H]6OC)[C@@](O)([C@@H](OC)[C@H]23)[C@@H]14 [methyllycaconitine] | – | 120 ± 50 | 190 ± 20 | 240 ± 130
CN1CCC[C@H]1c1cccnc1 [nicotine] | 437000 ± 73000 | – | – | –
